# Literature values in patent publication US4814324A, “Sterol inhibitors of testosterone 5α-reductase” (Merck & Co., Inc., priority 1987, dated 1989).
# Tests used:
# [1] = system: testosterone-5α-reductase; details: Voigt and Hsia, Endocrinology, 92, 1216 (1973)
# [2] = system: female hamster flank organ; details: Voigt and Hsia; for response elicited by 5α-dihydrotestosterone (flank organ enlargement) / response elicited by testosterone (flank organ enlargement): topical; for response elicited by 5α-dihydrotestosterone (flank organ enlargement): concomitant with 5α-dihydrotestosterone; for response elicited by testosterone (flank organ enlargement): concomitant with testosterone; for enlargement of the female hamster flank organ: topical application alone
Structure (SMILES),testosterone-5α-reductase inhibition in vitro [1],response elicited by 5α-dihydrotestosterone (flank organ enlargement) [2],response elicited by testosterone (flank organ enlargement) [2],enlargement of the female hamster flank organ [2]
C[C@]12CC[C@H]3[C@@H](CCC4=CC(=O)CC[C@@]43C)[C@@H]1CC[C@@H]2C(=O)O [4-androsten-3-one-17β-carboxylic acid],active inhibitors,did not inhibit the response elicited by 5α-dihydrotestosterone,inhibited the response elicited by testosterone,
"C[C@]12CCC(=O)C[C@@H]1CC[C@@H]1[C@@H]2CC[C@]2(C)[C@@H](O)CC[C@@H]12 [5α-dihydrotesterone, 5α-dihydrotestosterone]",,,,caused enlargement of the female hamster flank organ
COC(=O)[C@H]1CC[C@H]2[C@@H]3CCC4=CC(=O)CC[C@]4(C)[C@H]3CC[C@]12C [methyl 4-androsten-3-one-17β-carboxylate],active inhibitors,did not inhibit the response elicited by 5α-dihydrotestosterone,inhibited the response elicited by testosterone,
C[C@]12CC[C@H]3[C@@H](CCC4=CC(=O)CC[C@@]43C)[C@@H]1CC[C@@H]2O [testosterone],,,,caused enlargement of the female hamster flank organ
